Values after ≈ are worked out from the molar mass of the structure shown. Like-named read-outs stand apart in the source and are kept apart here.
Tests used:
[1] = system: Streptococcus pneumoniae Park I; experiment: MIC, standard agar-dilution assay (Table IX); assay type: cell-based; conditions: Streptococcus pneumoniae Park I; agar-dilution; read-out: MIC
[2] = system: Staphylococcus aureus S13E; experiment: MIC, standard agar-dilution assay (Table IX); assay type: cell-based; conditions: Staphylococcus aureus, S13E
[3] = system: Staphylococcus aureus X400; experiment: MIC, standard agar-dilution assay (Table IX); assay type: cell-based; conditions: Staphylococcus aureus X400, Methicillin-resistant strain, read-out: MIC
[4] = system: Staphylococcus epidermidis 222; experiment: MIC, standard agar-dilution assay (Table IX); assay type: cell-based; conditions: read-out: MIC
[5] = system: Streptococcus Group D 2041; experiment: MIC, standard agar-dilution assay (Table IX); assay type: cell-based; conditions: GROUPD2041, read-out: MIC
[6] = system: Haemophilus influenzae C.L.; experiment: MIC, standard agar-dilution assay (Table IX); assay type: cell-based; conditions: Ampicillin-sensitive strain, read-out: MIC
[7] = system: Streptococcus Group D X66; experiment: MIC, standard agar-dilution assay (Table IX); assay type: cell-based; conditions: read-out: MIC
[8] = system: Mycoplasma hyopneumoniae S5972; experiment: MIC, broth-dilution microtiter test (Table X); assay type: cell-based; conditions: Mesomycoplasma hyopneumoniae, read-out: MIC
Text: (§1) The MIC's in Table X were obtained using conventional broth-dilution microtiter tests.

[9] = system: Mycoplasma synoviae 40A; experiment: MIC, broth-dilution microtiter test (Table X); assay type: cell-based; conditions: Mycoplasmopsis synoviae, read-out: MIC
Text: as §1

[10] = system: Staphylococcus aureus; experiment: MIC, broth-dilution microtiter test (Table X); assay type: cell-based; conditions: read-out: MIC
Text: as §1

[11] = system: Mycoplasma hyorhinis 29E; experiment: MIC, broth-dilution microtiter test (Table X); assay type: cell-based; conditions: read-out: MIC
Text: as §1

[12] = system: Mycoplasma gallisepticum 29C; experiment: MIC, broth-dilution microtiter test (Table X); assay type: cell-based; conditions: Mycoplasmoides gallisepticum, read-out: MIC
Text: as §1

[13] = system: Pasteurella multocida 17E; experiment: MIC, broth-dilution microtiter test (Table X); assay type: cell-based; conditions: Bovine isolate, read-out: MIC
Text: as §1

[14] = system: Pasteurella hemolytica 22C; experiment: MIC, broth-dilution microtiter test (Table X); assay type: cell-based; conditions: read-out: MIC
Text: as §1

[15] = system: Pasteurella multocida 60A; experiment: MIC, broth-dilution microtiter test (Table X); assay type: cell-based; conditions: Avian isolate, read-out: MIC
Text: as §1

[16] = system: Streptococcus sp. 19F; experiment: MIC, broth-dilution microtiter test (Table X); assay type: cell-based; conditions: read-out: MIC
Text: as §1

[17] = system: Pasteurella multocida; experiment: Pasteurella infection in one-day-old chicks, subcutaneous administration (Table XII); assay type: in vivo; conditions: Administered subcutaneously, 30 mg/kg × 2, 1 and 4 hours post-challenge
Method: (§2) Many of the C-20 modified derivatives of this invention have also shown in vivo antibacterial activity against infections induced by gram-negative bacteria. Tables XII and XIII summarize the results of tests in which illustrative compounds were evaluated against a Pasteurella infection in one-day-old chicks. The compounds were administered parenterally or orally after challenge of the chicks with Pasteurella multocida (0.1 ml of a 10^-4 dilution of a twenty-hour tryptose broth culture of an avian P. multocida given subcutaneously). In these tests, unless indicated otherwise, all non-medicated infected chicks died within 24 hours of Pasteurella challenge. In the tests summarized in Table XII, the compounds were administered by subcutaneous injection at a dosage of 30 mg/kg, 1 and 4 hours post-challenge of the chicks with P. multocida. In the tests summarized in Table XIII the compounds were administered in medicated drinking water (at a level of 2 g/gal) available from 4 to 20 hours prior to challenge of the chicks with P. multocida and during the 3 -day test period.
^a Administered subcutaneously; 30 mg/kg × 2

[18] = system: Escherichia coli TEM; experiment: MIC, standard agar-dilution assay (Table IX); assay type: cell-based; conditions: read-out: MIC
[19] = system: Staphylococcus aureus V41; experiment: MIC, standard agar-dilution assay (Table IX); assay type: cell-based; conditions: Staphylococcus aureus V41, Penicillin-resistant strain, read-out: MIC
[20] = system: Staphyloccus aureus X1.1; experiment: MIC, standard agar-dilution assay (Table IX); assay type: cell-based, Staphylococcus aureus; conditions: Staphylococcus aureus, read-out: MIC
[21] = system: Streptococcus pyogenes C203; experiment: MIC, standard agar-dilution assay (Table IX); assay type: cell-based; conditions: read-out: MIC
[22] = system: Haemophilus influenzae 76; experiment: MIC, standard agar-dilution assay (Table IX); assay type: cell-based; conditions: Haemophilus influenzae 76, Ampicillin-resistant strain, read-out: MIC
[23] = system: Klebsiella X26; experiment: MIC, standard agar-dilution assay (Table IX); assay type: cell-based; conditions: read-out: MIC
[24] = system: Staphylococcus epidermidis EPI1; experiment: MIC, standard agar-dilution assay (Table IX); assay type: cell-based; conditions: Staphylococcus epidermidis EPI1; agar-dilution; read-out: MIC
[25] = system: Escherichia coli EC14; experiment: MIC, standard agar-dilution assay (Table IX); assay type: cell-based; conditions: read-out: MIC
[26] = system: Escherichia coli N10; experiment: MIC, standard agar-dilution assay (Table IX); assay type: cell-based; conditions: read-out: MIC
[27] = Titratable groups in 66% aqueous DMF (Tables XIV-XVI); assay type: physicochemical
Text: ^c Run in 66% aqueous DMF
^d Run in 66% aqueous DMF

[28] = system: Pasteurella multocida; experiment: Pasteurella infection in one-day-old chicks, medicated drinking water (Table XIII); assay type: in vivo; conditions: Administered in the available drinking water at 2 g/gal
Method: as §2
^a Administered in the available drinking water at a concentration of […]

[29] = system: Streptococcus pyogenes C203; experiment: ED50 in mice experimentally infected with S. pyogenes C203 (Table XI); assay type: in vivo; conditions: Streptococcus pyogenes, doses given 1 and 4 hours postinfection, read-out: ED50
Outline: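 Mice infected with S. pyogenes C203 received two doses of compound, 1 and 4 h post-infection. ED50 is the dose in mg/kg (per dose, ×2) protecting 50% of animals.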

Row | Structure (SMILES) | MIC [1] [µg/mL] | MIC [2] [µg/mL] | MIC [3] [µg/mL] | MIC [4] [µg/mL] | MIC [5] [µg/mL] | MIC [6] [µg/mL] | MIC [7] [µg/mL] | MIC [8] [µg/mL] | MIC [9] [µg/mL] | MIC [10] [µg/mL] | MIC [11] [µg/mL] | MIC [12] [µg/mL] | MIC [13] [µg/mL] | MIC [14] [µg/mL] | MIC [15] [µg/mL] | MIC [16] [µg/mL] | Number of Deaths/Number Treated [17] | MIC [18] [µg/mL] | MIC [19] [µg/mL] | MIC [20] [µg/mL] | other results
1 | CCC1OC(=O)CC(O)C(C)C(OC2OC(C)C(O)C(N(C)C)C2O)C(CCN2C3CCCCC3C3CCCCC32)CC(C)C(=O)C=CC(C)=CC1COC1OC(C)C(O)C(OC)C1OC (centres unmarked) [Compound D25, 20-DH-DO-20-(Dodecahydrocarbazol-9-yl) desmycosin] | 0.5 (≈ 0.535 µM) | 0.5 (≈ 0.535 µM) | 1 (≈ 1.07 µM) | 0.25 (≈ 0.267 µM) | 4 (≈ 4.28 µM) | 16 (≈ 17.1 µM) | 4 (≈ 4.28 µM) | 0.39 (≈ 0.417 µM) | 0.097 (≈ 0.104 µM) | 3.12 (≈ 3.34 µM) | 12.5 (≈ 13.4 µM) | 0.39 (≈ 0.417 µM) | 12.5 (≈ 13.4 µM) | 3.12 (≈ 3.34 µM) | 12.5 (≈ 13.4 µM) | 3.12 (≈ 3.34 µM) | 0/10 | 32 (≈ 34.2 µM) | 0.5 (≈ 0.535 µM) | 0.5 (≈ 0.535 µM) | MIC [21]: 0.25 µg/mL (≈ 0.267 µM); MIC [22]: 8 µg/mL (≈ 8.55 µM); MIC [23]: 128 µg/mL (≈ 137 µM); MIC [24]: 0.5 µg/mL (≈ 0.535 µM); MIC [25]: 128 µg/mL (≈ 137 µM); MIC [26]: 128 µg/mL (≈ 137 µM); pKa ([27]; Titratable groups): 9.95; pKa ([27]; Titratable groups (first value)): 7.95; Number of Deaths/Number Treated [28]: 7/10
2 | CCC1OC(=O)CC(O)C(C)C(OC2OC(C)C(O)C(N(C)C)C2O)C(CCN2CC=CCC2)CC(C)C(=O)C=CC(C)=CC1COC1OC(C)C(O)C(OC)C1OC (centres unmarked) [Compound D22, 20-DH-DO-20-(1,2,3,6-Tetrahydropyridin-1-yl)desmycosin] | 1 (≈ 1.19 µM) | 0.5 (≈ 0.596 µM) | 1 (≈ 1.19 µM) | 0.25 (≈ 0.298 µM) | 8 (≈ 9.53 µM) | 16 (≈ 19.1 µM) | 8 (≈ 9.53 µM) | 1.56 (≈ 1.86 µM) | 0.78 (≈ 0.93 µM) | 1.56 (≈ 1.86 µM) | 25 (≈ 29.8 µM) | 0.78 (≈ 0.93 µM) | 12.5 (≈ 14.9 µM) | 3.12 (≈ 3.72 µM) | 12.5 (≈ 14.9 µM) | 3.12 (≈ 3.72 µM) | 0/10 | 64 (≈ 76.3 µM) | 0.5 (≈ 0.596 µM) | 1 (≈ 1.19 µM) | ED50 ([29]; C203, Oral): 40 mg/kg; ED50 ([29]; C203, sc, Subcutaneous): 0.8 mg/kg; MIC [21]: 0.25 µg/mL (≈ 0.298 µM); MIC [22]: 8 µg/mL (≈ 9.53 µM); MIC [23]: 64 µg/mL (≈ 76.3 µM); MIC [24]: 0.5 µg/mL (≈ 0.596 µM); MIC [25]: > 128 µg/mL; MIC [26]: > 128 µg/mL; Number of Deaths/Number Treated [28]: 5/10
3 | CCC1OC(=O)CC(O)C(C)C(OC2OC(C)C(O)C(N(C)C)C2O)C(CCN2CCc3ccccc3C2)CC(C)C(=O)C=CC(C)=CC1COC1OC(C)C(O)C(OC)C1OC (centres unmarked) [Compound D12, 20-DH-DO-20-(1,2,3,4-Tetrahydroisoquinolin-2-yl)desmycosin] | 1 (≈ 1.12 µM) | 0.5 (≈ 0.562 µM) | 0.5 (≈ 0.562 µM) | 0.25 (≈ 0.281 µM) | 8 (≈ 9 µM) | 16 (≈ 18 µM) | 4 (≈ 4.5 µM) | 3.12 (≈ 3.51 µM) | 0.39 (≈ 0.439 µM) | 1.56 (≈ 1.75 µM) | 12.5 (≈ 14.1 µM) | ≤ 0.048 | 6.25 (≈ 7.03 µM) | 3.12 (≈ 3.51 µM) | 12.5 (≈ 14.1 µM) | 3.12 (≈ 3.51 µM) | 9/10 | 64 (≈ 72 µM) | 0.5 (≈ 0.562 µM) | 0.5 (≈ 0.562 µM) | ED50 ([29]; C203, Oral): < 6.3 mg/kg; ED50 ([29]; C203, sc, Subcutaneous): 2 mg/kg; MIC [21]: 0.5 µg/mL (≈ 0.562 µM); MIC [22]: 8 µg/mL (≈ 9 µM); MIC [23]: 32 µg/mL (≈ 36 µM); MIC [24]: 0.5 µg/mL (≈ 0.562 µM); MIC [25]: 128 µg/mL (≈ 144 µM); MIC [26]: > 128 µg/mL; Number of Deaths/Number Treated [28]: 8/10
4 | CCC1OC(=O)CC(O)C(C)C(OC2OC(C)C(O)C(N(C)C)C2O)C(CCN2CCC3(CC2)OCCO3)CC(C)C(=O)C=CC(C)=CC1COC1OC(C)C(O)C(OC)C1OC (centres unmarked) [Compound D28, 20-DH-DO-20-[4-(ethylenedioxy)piperidin-1-yl]desmycosin] | 2 (≈ 2.22 µM) | 2 (≈ 2.22 µM) | 4 (≈ 4.45 µM) | 1 (≈ 1.11 µM) | 8 (≈ 8.9 µM) | 32 (≈ 35.6 µM) | 8 (≈ 8.9 µM) | 1.56 (≈ 1.74 µM) | 0.195 (≈ 0.217 µM) | 3.12 (≈ 3.47 µM) | 25 (≈ 27.8 µM) | 0.097 (≈ 0.108 µM) | 6.25 (≈ 6.95 µM) | 25 (≈ 27.8 µM) | 25 (≈ 27.8 µM) | 3.12 (≈ 3.47 µM) | 0/10 | 64 (≈ 71.2 µM) | 2 (≈ 2.22 µM) | 2 (≈ 2.22 µM) | ED50 ([29]; C203, Oral): 77 mg/kg; ED50 ([29]; C203, sc, Subcutaneous): 0.75 mg/kg; MIC [21]: 0.5 µg/mL (≈ 0.556 µM); MIC [22]: 32 µg/mL (≈ 35.6 µM); MIC [23]: 64 µg/mL (≈ 71.2 µM); MIC [24]: 2 µg/mL (≈ 2.22 µM); MIC [25]: > 128 µg/mL; MIC [26]: > 128 µg/mL; Number of Deaths/Number Treated [28]: 7/10
